Assay results from patent US20100069304A1, “PROTECTIVE EFFECTS OF INHIBITING THE INTERACTION OF CALMODULIN AND MUTANT HUNTINGTIN PROTEIN” (priority 2008, published 2010).
Entries after “also recorded” stand apart in the source; their conditions may differ.

Assays:
[1] = test system: cells expressing mutant huntingtin and TG; conditions: cited from earlier work
[2] = test system: HD transgenic mice; conditions: cited from earlier work
[3] = test system: transglutaminase; test: In situ transglutaminase assay in intact cells; assay type: cell-based, human; conditions: SHSY5Y-htt-N63-148Q cells
Protocol: In situ transglutaminase assay. In this in situ assay, transglutaminase activity is measured in intact cells via incorporation of a polyamine and the presence of the transglutaminase-catalyzed bond. Forty-two hours post viral infection, cells were treated with 2 mM 5-(biotinamido)pentylamine, a biotinylated polyamine (Pierce, Rockford, Ill.), and 6 hours post polyamine treatment, cells were harvested and lysed in 0.1 M Tris-HCl pH 8.3, 1 mM EDTA, 1 mM PMSF, and protease inhibitor cocktail. 96-well Immulon 4 HBX plates (Dynatech, Franklin, Mass.) were coated with anti-ε-(γ-glutamyl)lysine (81D4) antibody (CovalAb, Lyon, France) in 0.1 M Na2HPO4.7 H2O pH 9 overnight at 4° C. Then the plates were washed with PBS and blocked with 2% milk in PBS for 1 hour at room temperature, followed by 3 washes with PBS with 0.0375% Tween. Cell lysates (50 μg of protein/sample/well) were added to the wells in triplicates and incubated for 1 hour at 37° C. The plate was washed with PBS and 0.0375% Tween, followed by incubation with streptavidin conjugated to HRP (Jackson ImmunoResearch, West Grove, Pa.) for 1 hour at room temperature. After final washes, a 1×TMB substrate solution (eBioscience, SanDiego, Calif.) was added and color was allowed to develop for 5-10 minutes. The reaction was stopped with 3 N sulfuric acid and the absorbance was read at 450 nm.

[4] = test system: TGase; test: TGase activity in mouse striatal homogenates; assay type: in vivo; conditions: 500 μM GTPγS, all mouse groups
Protocol: TGase II Activity Assay. TGase activity was measured by detecting the incorporation of a biotinylated TGase amine substrate, 5-(biotinamido)pentylamine (Pierce, Rockford, Ill.) into N,N'-dimethylcasein (Calbiochem, San Diego, Calif.) as previously described (Dudek et al., 2009). 96-well Immulon 4 HBX plates (Dynatech, Franklin, Mass.) were coated with 100 μl of N,N′-dimethylcasein (20 mg/ml) in 0.05M sodium bicarbonate, and stored at 4° C. overnight. After the unbound N,N′-dimethylcasein was discarded, the plate was washed with PBS and blocked with nonfat dry milk (2% milk in PBS) for 1 hour at 37° C., followed by 3 washes with PBS. Striatum from the various mice were homogenized in 0.1 M Tris-HCl pH 8.3, 1 mM EDTA, 1 mM PMSF, and protease inhibitor cocktail. Striatal homogenates (15 μg of protein/sample) were added to the plate with 0.1 M Tris-HCl pH 8.5, 0.15 M NaCl, 5 mM DTT, 0.5 mM biotin-labeled pentylamine, and 5 mM CaCl2. The mixture was incubated for 1 hour at 37° C. The plate was washed with TBS and 0.001% Tween followed by incubation with streptavidin conjugated to HRP (Jackson ImmunoResearch, West Grove, Pa.) for 1 hour at room temperature. […] Then the reaction was stopped with 3N sulfuric acid and the absorbance was read at 450 nm. […] Each sample was measured in triplicate.

[5] = molecular target: T1, mutant huntingtin (htt-N63-148Q) (Homo sapiens, UniProt P42858, INS26QQQQQQQQQQ/INS27QQQQQQQQQQ/INS28QQQQQQQQQQ/INS29QQQQQQQQQQ/INS30QQQQQQQQQQ/INS31QQQQQQQQQQ/INS32QQQQQQQQQQ/INS33QQQQQQQQQQ/INS34QQQQQQQQQQ/INS35QQQQQQQQQQ/INS36QQQQQQQQQQ/INS37QQQQQQQQQQ/INS38QQQQQQQ); test: TG-modified huntingtin (81D4 immunoprecipitation and immunoblot) in transfected HEK-293T cells; assay type: cell-based; conditions: HEK-293T cells with htt-N63-148Q, TG2 and CaM construct vs vector control
T1 construct: myc; expressed in transfected cells; host or cells: HEK-293T
Protocol: HEK-293T cells were grown in OptiMEM reduced serum medium (Invitrogen, Carlsbad, Calif.) containing nonessential amino acids, antimycotic and antibiotic agents, and 10% FBS, in the presence of 5% CO2 at 37° C. Cells were grown to 80-90% confluency and transfected using Lipofectamine Plus (Invitrogen, Carlsbald, Calif.). […] Forty-eight hours after transfection, cells were harvested and resuspened in lysis buffer containing 50 mM Tris-HCl, pH 8.8, 100 mM NaCl, 5 mM MgCl2, 0.05% NP-40, 1 mM EDTA (Tang T S, Tu H, Chan E Y, et al. Huntingtin and huntingtin-associated protein 1 influence neuronal calcium signaling mediated by inositol-(1,4,5)triphosphate receptor type 1. Neuron 2003;39:227-239) and 1:1,000 protease inhibitor mixture (Sigma, St. Louis, Mo.). […]
Immunoblots. […] Signal was detected using enhanced chemiluminescence (ECL) Western blotting detection reagents (Amersham Biosciences, Piscataway, N.J.). Immunoblots were quantified by calculating the sum of the densities of all of the pixels within each protein band as the integrated optical density (IOD), using Scion Image for Windows (Scion, Frederick, Md.). Film background IOD was measured and subtracted from each band IOD. Measurements were done in triplicate and the mean was calculated.

[6] = molecular target: T2, htt-exon1-44Q binding to CaM (Homo sapiens, UniProt P42858, INS38QQQQQQQQQQQQQQQQQQQQQQQ); test: In vitro mutant huntingtin-calmodulin binding (calmodulin-agarose)
T2 construct: encoding exon 1 of huntingtin with 44 glutamine residues; MBP; host or cells: Escherichia coli
T2 sequence (P42858 with tags, fused parts or gaps with the stated changes limits assumed): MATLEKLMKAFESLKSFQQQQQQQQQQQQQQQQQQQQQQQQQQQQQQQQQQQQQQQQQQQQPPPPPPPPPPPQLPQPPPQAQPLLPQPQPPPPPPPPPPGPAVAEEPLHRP

T1 sequence (P42858 with tags, fused parts or gaps limits assumed, stated change not applied): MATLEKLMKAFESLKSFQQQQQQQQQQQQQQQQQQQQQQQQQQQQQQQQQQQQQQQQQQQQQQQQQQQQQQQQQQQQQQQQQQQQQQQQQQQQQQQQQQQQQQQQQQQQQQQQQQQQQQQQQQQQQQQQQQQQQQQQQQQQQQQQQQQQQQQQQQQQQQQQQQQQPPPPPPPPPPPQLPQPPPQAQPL

NCCSSCCN [cystamine]
cell survival [1]: increased cell survival | cross-linking of huntingtin [1]: decreased the cross-linking of huntingtin | survival [2]: increase survival

GDTVEREKDAYNSLEGFDNTIHTLRADIGMVEEVAKSKRDEEFLE [scram-CaM-peptide]
total TG activity in situ between infections [3]: no significant difference in total TG activity

Nc1nc2c(ncn2[C@@H]2O[C@H](COP(=O)(O)OP(=O)(O)OP(O)(O)=S)[C@@H](O)[C@H]2O)c(=O)[nH]1 [GTPγS]
reduction of TGase activity [4]: at least 60%

CaM-N-term: calmodulin fragment: first 76 amino acids, contains the first two Ca2+ binding sites
TG-modified huntingtin compared to control cells (in words) [5]: no significant decrease in TG-modified huntingtin, but rather an increase; also recorded: did not reduce the TG-catalyzed modifications of huntingtin

Cl.NCCCCCCNS(=O)(=O)c1cccc2ccccc12 [W-5, N-(6-Aminohexyl)-1-naphthalenesulfonamide hydrochloride]
amount of CaM-bound htt-exon1-44Q ([6]; 664 μM W-5 along with 10 μM of CaM-peptide): significantly increased | amount of CaM-bound htt-exon1-44Q ([6]; W-5 alone): did not affect the amount of CaM-bound htt-exonl-44Q
